Test results as given in US9085606B2, “Beta amino acid derivatives as integrin antagonists” (Saint Louis University, priority 2012, dated 2015).
pIC50: −log10 of the molar value.

Experiments:
[1] = target: T1, Recombinant human integrin α5β1 (Homo sapiens, UniProt P05556+P08648); experiment: Solid Phase Receptor Assay for α5β1 Function; conditions: binding to fibronectin-coated plate; read-out: α5β1 SPRA IC50
T1 construct: purchased R&D Systems 3230-A5
Protocol: Solid Phase Receptor Assay for α5β1 Function.
Wells were washed 3 times with 150 μL TBS+ and 150 μl of blocking buffer (TBS+ with 1% bovine serum albumin, Sigma A7906) were added. The plate was incubated for 1 hr at 37° C. and then washed 3× with TBS+ buffer. […] Compounds were diluted 1:100 into the integrin solution and then 50 μL added to empty wells of the washed fibronectin-coated plate according to a standard template with each sample repeated in triplicate. After incubation for two hours at room temperature, the plate was washed 3× with 150 μL of TBS+ buffer. To each well, 50 μL of biotinylated anti-α5 antibody (R&D Systems, BAF1864) at 0.5 ug/mL in TBS+/0.1% BSA were added and the plate covered and incubated for 1 hr at room temperature. After washing the plate 3× with 150 μL of TBS+ buffer, 50 μL of streptavidin-conjugated horseradish peroxidase (R&D Systems, DY998) diluted in TBS+ blocking buffer were added to the wells and the plate incubated for 20 min at room temperature. The plate was washed 3× with TBS+ buffer followed by 50 μL of room temperature TMB substrate (Sigma, T444) added to each well and the plate incubated for 20 min at room temperature. The reaction was optionally stopped with 25 μL of Stop Solution (Sigma S5689). Plates were read by colorimetric detection at 650 nm wavelength using a Tecan Safire II plate reader.

[2] = target: T2, Recombinant human integrin αvβ6 (Homo sapiens, UniProt P06756+P18564); experiment: Solid Phase Receptor Assay for αvβ6 Function; conditions: binding to LAP-coated plate; read-out: αvβ6 SPRA IC50
T2 construct: purchased R&D Systems 3817-AV
T2 sequence (P06756 31-992 limits assumed): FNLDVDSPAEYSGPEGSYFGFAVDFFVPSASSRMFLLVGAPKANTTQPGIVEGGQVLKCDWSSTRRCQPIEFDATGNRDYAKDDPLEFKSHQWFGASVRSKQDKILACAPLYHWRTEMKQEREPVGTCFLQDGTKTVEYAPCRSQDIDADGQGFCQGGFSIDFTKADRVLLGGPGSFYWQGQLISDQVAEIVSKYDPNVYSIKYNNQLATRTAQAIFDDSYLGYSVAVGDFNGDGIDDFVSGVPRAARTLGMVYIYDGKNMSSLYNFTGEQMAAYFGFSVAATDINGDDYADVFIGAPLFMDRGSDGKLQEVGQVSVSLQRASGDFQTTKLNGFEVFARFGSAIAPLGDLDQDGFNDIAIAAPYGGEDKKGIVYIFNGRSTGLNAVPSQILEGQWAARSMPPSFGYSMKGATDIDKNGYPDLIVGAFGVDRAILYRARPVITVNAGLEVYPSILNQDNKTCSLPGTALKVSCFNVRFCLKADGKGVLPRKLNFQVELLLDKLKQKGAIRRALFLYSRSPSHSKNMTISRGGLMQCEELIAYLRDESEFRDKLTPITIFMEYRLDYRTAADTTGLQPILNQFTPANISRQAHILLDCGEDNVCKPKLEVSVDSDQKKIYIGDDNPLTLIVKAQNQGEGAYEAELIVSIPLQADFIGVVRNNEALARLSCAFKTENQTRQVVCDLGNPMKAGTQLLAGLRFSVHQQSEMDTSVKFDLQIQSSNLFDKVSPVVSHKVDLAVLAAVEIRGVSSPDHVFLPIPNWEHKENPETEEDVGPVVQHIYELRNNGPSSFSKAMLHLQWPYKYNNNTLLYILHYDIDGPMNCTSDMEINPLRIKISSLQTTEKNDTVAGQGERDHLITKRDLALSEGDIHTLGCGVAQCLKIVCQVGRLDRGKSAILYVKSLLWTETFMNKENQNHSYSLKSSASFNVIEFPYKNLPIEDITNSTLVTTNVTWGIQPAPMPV
T2 sequence (P18564 22-707 limits assumed): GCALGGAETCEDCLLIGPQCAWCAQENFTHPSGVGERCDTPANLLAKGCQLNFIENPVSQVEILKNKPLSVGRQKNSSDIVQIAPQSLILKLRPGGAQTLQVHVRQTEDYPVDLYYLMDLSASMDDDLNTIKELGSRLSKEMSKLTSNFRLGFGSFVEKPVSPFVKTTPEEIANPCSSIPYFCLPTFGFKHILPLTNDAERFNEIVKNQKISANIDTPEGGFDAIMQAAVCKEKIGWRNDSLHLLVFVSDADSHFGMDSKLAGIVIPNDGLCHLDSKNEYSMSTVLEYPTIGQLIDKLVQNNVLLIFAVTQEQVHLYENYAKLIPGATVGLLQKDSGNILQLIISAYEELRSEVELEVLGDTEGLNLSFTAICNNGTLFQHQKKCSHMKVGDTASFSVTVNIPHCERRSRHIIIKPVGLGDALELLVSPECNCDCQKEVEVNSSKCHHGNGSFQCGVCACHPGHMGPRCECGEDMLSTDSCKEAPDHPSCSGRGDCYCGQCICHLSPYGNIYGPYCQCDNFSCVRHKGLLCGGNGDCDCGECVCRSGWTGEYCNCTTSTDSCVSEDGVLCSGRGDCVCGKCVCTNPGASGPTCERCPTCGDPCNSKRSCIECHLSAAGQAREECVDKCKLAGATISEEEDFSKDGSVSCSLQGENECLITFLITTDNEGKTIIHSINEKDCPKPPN
Protocol: Solid Phase Receptor Assay for αvβ6 Function.
(§1) Wells were washed 3 times with 150 μL TBS+, and 150 μL of blocking buffer (TBS+ with 1% bovine serum albumin, Sigma A7906) were added. The plate was incubated for 1 hr at 37° C., and then washed 3× with TBS+ buffer. […] Compounds were diluted 1:100 into the integrin solution and then 50 μL added to empty wells of the washed LAP-coated plate according to a standard template with each sample repeated in triplicate. After incubation for two hours at room temperature, the plate was washed 3× with 150 μL of TBS+ buffer. To each well, 50 μL of biotinylated anti-αv antibody (R&D Systems, BAF1219) at 0.5 μg/mL in TBS+/0.1% BSA were added and the plate was covered and incubated for 1 hr at room temperature. After washing the plate 3× with 150 μL of TBS+ buffer, 50 μL of streptavidin-conjugated horseradish peroxidase (R&D Systems, DY998) diluted in TBS+ blocking buffer were added to the wells and the plate incubated for 20 min at room temperature. The plate was washed 3× with TBS+ buffer followed by 50 μL of TMB substrate (Sigma T4444) added to each well and the plate incubated for 20 min at room temperature. The reaction was optionally stopped with 25 μL of Stop Solution (Sigma S5689). Plates were read by colorimetric detection at 650 nm wavelength using a Tecan Safire II plate reader.

[3] = target: T3, Recombinant human integrin αvβ5 (Homo sapiens, UniProt P06756+P18084); experiment: Solid Phase Receptor Assay for αvβ5 Function; conditions: binding to vitronectin-coated plate; read-out: αvβ5 SPRA IC50
T3 construct: purchased R&D Systems 2528-AV
T3 sequence (P06756 31-992 limits assumed): as the sequence (P06756 31-992 limits assumed) above
T3 sequence (P18084 24-719 limits assumed): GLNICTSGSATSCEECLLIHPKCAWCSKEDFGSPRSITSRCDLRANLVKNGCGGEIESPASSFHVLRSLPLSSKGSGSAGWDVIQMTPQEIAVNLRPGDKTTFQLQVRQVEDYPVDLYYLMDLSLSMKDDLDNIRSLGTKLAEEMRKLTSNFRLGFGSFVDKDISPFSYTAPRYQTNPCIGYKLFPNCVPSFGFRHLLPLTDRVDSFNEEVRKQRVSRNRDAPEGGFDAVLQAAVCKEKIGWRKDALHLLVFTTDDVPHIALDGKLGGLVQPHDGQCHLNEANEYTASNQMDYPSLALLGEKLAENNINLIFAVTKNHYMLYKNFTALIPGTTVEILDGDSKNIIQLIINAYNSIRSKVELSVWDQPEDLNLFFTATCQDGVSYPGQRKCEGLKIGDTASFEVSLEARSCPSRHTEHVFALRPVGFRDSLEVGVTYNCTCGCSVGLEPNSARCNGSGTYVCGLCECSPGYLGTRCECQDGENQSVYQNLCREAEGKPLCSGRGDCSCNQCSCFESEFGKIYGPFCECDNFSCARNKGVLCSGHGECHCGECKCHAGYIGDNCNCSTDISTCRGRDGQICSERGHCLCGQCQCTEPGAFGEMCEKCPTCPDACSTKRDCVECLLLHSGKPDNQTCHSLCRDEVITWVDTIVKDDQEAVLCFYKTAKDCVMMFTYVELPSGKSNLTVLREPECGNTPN
Protocol: Solid Phase Receptor Assay for αvβ5 Function.
as §1, with “150 μL TBS+ and 150” for “150 μL TBS+, and 150”, “at 37° C. and then” for “at 37° C., and then”, “the washed vitronectin-coated plate according” for “the washed LAP-coated plate according”, “TBS+/0.1% BSA at 0.5 μg/mL were added” for “TBS+/0.1% BSA were added”, “the plate covered and” for “the plate was covered and”, “peroxidase (R&D Systems DY998) diluted” for “peroxidase (R&D Systems, DY998) diluted”

T1 sequence (P08648 42-995 limits assumed): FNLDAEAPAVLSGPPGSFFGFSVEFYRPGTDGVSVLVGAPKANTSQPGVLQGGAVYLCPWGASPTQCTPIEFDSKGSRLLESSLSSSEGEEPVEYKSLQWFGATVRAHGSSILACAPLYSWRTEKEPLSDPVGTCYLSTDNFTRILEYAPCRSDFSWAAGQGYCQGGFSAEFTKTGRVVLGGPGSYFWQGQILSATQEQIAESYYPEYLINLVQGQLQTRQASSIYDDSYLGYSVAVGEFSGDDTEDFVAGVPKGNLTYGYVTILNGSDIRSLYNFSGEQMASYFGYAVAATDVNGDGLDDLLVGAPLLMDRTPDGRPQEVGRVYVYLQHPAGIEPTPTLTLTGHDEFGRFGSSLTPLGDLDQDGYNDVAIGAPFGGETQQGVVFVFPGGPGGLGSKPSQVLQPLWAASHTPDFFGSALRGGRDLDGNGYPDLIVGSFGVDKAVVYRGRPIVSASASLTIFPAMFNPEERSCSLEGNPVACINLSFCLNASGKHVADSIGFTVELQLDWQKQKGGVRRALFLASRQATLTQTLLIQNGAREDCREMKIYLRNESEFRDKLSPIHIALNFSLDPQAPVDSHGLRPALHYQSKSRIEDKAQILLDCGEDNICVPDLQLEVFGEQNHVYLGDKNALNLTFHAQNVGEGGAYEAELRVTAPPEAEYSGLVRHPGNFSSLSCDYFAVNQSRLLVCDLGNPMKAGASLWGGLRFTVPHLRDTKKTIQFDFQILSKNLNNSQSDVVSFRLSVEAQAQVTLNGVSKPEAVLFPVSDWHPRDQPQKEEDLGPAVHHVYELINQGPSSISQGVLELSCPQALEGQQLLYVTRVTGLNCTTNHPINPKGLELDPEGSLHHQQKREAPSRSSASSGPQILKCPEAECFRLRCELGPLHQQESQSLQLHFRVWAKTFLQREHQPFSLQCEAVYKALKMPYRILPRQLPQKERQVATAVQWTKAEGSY
T1 sequence (P05556 21-728 limits assumed): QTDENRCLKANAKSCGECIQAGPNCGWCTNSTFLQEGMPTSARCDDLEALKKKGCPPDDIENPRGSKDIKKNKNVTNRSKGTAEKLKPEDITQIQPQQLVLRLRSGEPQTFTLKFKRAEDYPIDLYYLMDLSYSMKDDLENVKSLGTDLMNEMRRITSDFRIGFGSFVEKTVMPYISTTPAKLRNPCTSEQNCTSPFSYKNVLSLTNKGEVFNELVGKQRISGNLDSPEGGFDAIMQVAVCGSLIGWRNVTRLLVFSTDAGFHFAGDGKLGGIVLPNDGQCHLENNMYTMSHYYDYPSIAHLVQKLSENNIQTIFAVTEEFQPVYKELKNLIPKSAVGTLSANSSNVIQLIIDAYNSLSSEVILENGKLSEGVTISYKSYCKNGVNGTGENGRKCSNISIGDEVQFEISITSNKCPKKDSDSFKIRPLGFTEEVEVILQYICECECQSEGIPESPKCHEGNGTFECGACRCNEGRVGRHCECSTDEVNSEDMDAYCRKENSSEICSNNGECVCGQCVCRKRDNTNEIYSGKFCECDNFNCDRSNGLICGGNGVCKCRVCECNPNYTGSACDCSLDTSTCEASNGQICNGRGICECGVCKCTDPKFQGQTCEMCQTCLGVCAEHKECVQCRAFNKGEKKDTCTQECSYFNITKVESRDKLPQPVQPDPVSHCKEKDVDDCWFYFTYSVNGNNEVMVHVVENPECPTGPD

Q: Which results are given for CC(O)(c1cc([C@H](CC(=O)O)NC(=O)CNC(=O)c2cc(O)cc(NC3=NCC(O)CN3)c2)cc(C(F)(F)F)c1)C(F)(F)F (stereo partly drawn) [Example 25, (3S)-3-(2-(3-hydroxy-5-((5-hydroxy-1,4,5,6-tetrahydropyrimidin-2-yl)amino)benzamido)acetamido)-3-(3-(1,1,1-trifluoro-2-hydroxypropan-2-yl)-5-(trifluoromethyl)phenyl)propanoic acid]?
A: pIC50 [1]: 9.40; pIC50 [2]: 9.40; pIC50 [3]: 8.89

Q: What does the source list for N#CC1(c2cc(Cl)cc([C@H](CC(=O)O)NC(=O)CNC(=O)c3cc(O)cc(NC4=NCC(O)CN4)c3)c2)CCC1 (stereo partly drawn) [Example 21, (3S)-3-(3-chloro-5-(1-cyanocyclobutyl)phenyl)-3-(2-(3-hydroxy-5-((5-hydroxy-1,4,5,6-tetrahydropyrimidin-2-yl)amino)benzamido)acetamido)propanoic acid]?
A: pIC50 [1]: 9.52; pIC50 [2]: 9.52; pIC50 [3]: 9.40

Q: How did the pIC50 [1] turn out when CC(C)(c1cc(Cl)cc([C@H](CC(=O)O)NC(=O)CNC(=O)c2cc(O)cc(NC3=NCC(O)CN3)c2)c1)C(F)(F)F (stereo partly drawn) [Example 24, (3S)-3-(3-chloro-5-(1,1,1-trifluoro-2-methylpropan-2-yl)phenyl)-3-(2-(3-hydroxy-5-((5-hydroxy-1,4,5,6-tetrahydropyrimidin-2-yl)amino)benzamido)acetamido)propanoic acid] was run?
A: 9.52

Q: What about the pIC50 [2] of the same compound?
A: 9.40

Q: What about the pIC50 [3] of the same compound?
A: 9.52

Q: N#CC1(c2cc(Cl)cc([C@H](CC(=O)O)NC(=O)CNC(=O)c3cc(O)cc(NC4=NCC(O)CN4)c3)c2)CCOCC1 (stereo partly drawn) [Example 22, (3S)-3-(3-chloro-5-(4-cyanotetrahydro-2H-pyran-4-yl)phenyl)-3-(2-(3-hydroxy-5-((5-hydroxy-1,4,5,6-tetrahydropyrimidin-2-yl)amino)benzamido)acetamido)propanoic acid] was tested. Which pIC50 [1] did it give?
A: 9.52

Q: What about the pIC50 [2] of the same compound?
A: 9.52

Q: And the pIC50 [3]?
A: 9.40

Q: How did the pIC50 [1] turn out when CC(O)(c1cc(Cl)cc([C@H](CC(=O)O)NC(=O)CNC(=O)c2cc(O)cc(NC3=NCC(O)CN3)c2)c1)C(F)(F)F (stereo partly drawn) [Example 23, (3S)-3-(3-chloro-5-(1,1,1-trifluoro-2-hydroxypropan-2-yl)phenyl)-3-(2-(3-hydroxy-5-((5-hydroxy-1,4,5,6-tetrahydropyrimidin-2-yl)amino)benzamido)acetamido)propanoic acid] was run?
A: 9.52

Q: What about the pIC50 [2] of the same compound?
A: 9.40

Q: What about the pIC50 [3] of the same compound?
A: 9.30

Q: With O=C(O)C[C@H](NC(=O)CNC(=O)c1cc(O)cc(NC2=NCC(O)CN2)c1)c1cc(Br)cc(C2(C(F)F)CC2)c1 (stereo partly drawn) [Example 26, (3S)-3-(3-bromo-5-(1-(difluoromethyl)cyclopropyl)phenyl)-3-(2-(3-hydroxy-5-((5-hydroxy-1,4,5,6-tetrahydropyrimidin-2-yl)amino)benzamido)acetamido)propanoic acid] as the compound, how does the pIC50 [1] read?
A: 10.00

Q: What about the pIC50 [2] of the same compound?
A: 10.00

Q: What about the pIC50 [3] of the same compound?
A: 9.30
